We go through 32 compounds from PMC5067331, “Large Gliadin Peptides Detected in the Pancreas of NOD and Healthy Mice following Oral Administration” (Journal of Diabetes Research, 2016).

Entries after “also recorded” stand apart in the source; their conditions may differ. Where two headings read alike, the source gives them in different places. Ends that are not written are not given here.

Data set [1] is described as follows: MALDI-TOF MS of 33-mer fragments in plasma and pancreas after oral administration. The conditions noted are these: for Sample in which the 33-mer fragment was found: mice 6–20 weeks, 500–900 μg 33-mer p.o., plasma and pancreas 45–60 min after administration, sequence assigned by mass match.
Method: Plasma was fractionated in Amicon Ultra 10 kDa centrifugal filter units (Merck Millipore), Vivaspin 500, 5 kDa filter units (Sartorius), PD10 columns, Amicon Ultra 0.5 mL 10 kDa centrifugal filters, or SEP-PAK C18 Plus short cartridges (Waters), or they were ethanol-precipitated or acid-ethanol extracted. Slices from nonfixed gels were extracted overnight at 37°C in 100 μL of 50 mM NH4CO3 with or without 12.5 ng/μL Endoproteinase Glu-C Sequencing Grade (Roche Diagnostics). The gel slices were further extracted on a shaker for 15 min in 20 μL extraction buffer (1 : 2 (vol/vol) 50 mM NH4HCO3/acetonitrile). The extracts were combined.
Samples were dried in a vacuum concentrator (Eppendorf 5301) and reconstituted in 20 μL 5% acetic acid before desalting using POROS C18 matrix and elution onto a stainless steel 96-well MALDI target plate with 1 μL α-cyano-4-hydroxycinnamic acid (HCCA matrix) ready-made from Agilent (6 mg/mL in 30% acetonitrile, 30% methanol, and 0.1% TFA) for dried droplet crystallization. Analysis was done on Bruker Ultraflex with Daltonics flexAnalysis software, externally calibrated using a standard peptide mixture (Bruker, range: 1,000–3,200 Da). Spectra were recorded in positive linear mode and summed from 100 laser shots.
The MS mass of 84 fragments >800 Da was calculated. They were randomly generated from the 33-mer sequence, allowing for deamidation of up to two glutamine residues (only one deamidation for Mr <1500 Da) and for sodium and potassium ion adduct formation. Measured masses were matched to the predicted masses, using a difference of <0.5 Da as threshold. Masses from negative control samples were matched using a threshold of 1.0 and removed.
The nature of data set [2]: MALDI-TOF MS of fragments formed in vitro during incubation of 33-mer in mouse plasma. Format: in vitro ADME. The following applies: 33-mer in mouse plasma at 37°C, 5 kDa MWCO filtrate or SDS-PAGE gel slice, sequence assigned by mass match. From the text:
The extracts were combined.

The next data set deals with digestive proteases. The conditions noted are these: cited from earlier work.
The next data set has as its system albumin and IgG. Nature of the data set: Depletion of albumin and IgG from plasma, radioactivity in gel slices. It is filed as in vivo, mouse. An excerpt:
(§1) Supplementary file 2424306.f1.docx: Fig Supp 1. […] Abbreviations are as in Fig 1.Fig Supp 2. […] CT: control 33-mer/19-mer. […] CT is control 33-mer. […] CT is control 33-mer.

Data set [3] can be described thus: LC-MS detection of 33-mer in plasma. Format: in vivo, BALB/c mice. The conditions noted are these: BALB/c, methanol-TFA precipitation. How it is done:
BALB/c mice, 4–16 weeks of age, were given 650–900 μg of 33-mer, either i.v. or p.o., and heparin-plasma was prepared 15–60 min later at 0°C. Protein inhibitors were added to the tissues that were homogenized, mixed with internal standard (GENESEQP:AZF58701), and precipitated with 50% methanol, 1% TFA, and centrifugation. The samples were analyzed using an Orbitrap XL (Thermo Scientific) equipped with a Nano LC (Easy nLC II, Thermo Scientific). The chromatographic system was a 10 cm, ID 75 μm, 3 μm C18-A2 column (Thermo Scientific) with a flow of 300 nL/min with 0.1% formic acid as mobile phase A and 0.1% formic acid in acetonitrile as B. The MS scan was performed using a resolution of 30000 and a scan range of 300–2000 m/z.

The nature of data set [4]: In vitro incubation of 33-mer in blood plasma, SDS-PAGE and fluorography. The following applies: C57BL/6 plasma with 33-mer 28.6 ng/µl, 0-4 h. It is filed as in vitro ADME, C57BL/6 mouse.
Excerpt: as §1

The conditions of data set [5]: mouse, in vivo.
Method: Heparin-plasma was prepared from tail blood at 0°C and analysed by SDS-PAGE without further processing, after depletion of albumin and IgG using a commercial kit (Protea Biosciences) or after digestion with trypsin (incubation with 125 mM dithiothreitol, 0.05% SDS at 53°C, pH 7.5 for 45 min, followed by digestion with trypsin (Fluka) at 37°C). The gel was fixed in 15% formalin/25% ethanol and Coomassie-stained. For fluorography, the fixed gels were soaked in 7% glycerol and Amplify Fluorographic Reagent (GE Healthcare), each for 30 min, dried, and exposed on Amersham Hyperfilm MP at −80°C. Subsequently, the dried gels were rehydrated in 7% acetic acid for 2–4 h and Coomassie-stained.
For scintillation counting, gel slices were excised from the nonfixed gel, covered with 600 μL of 30% hydrogen peroxide, and heated at 50°C overnight before measurement.
For kinetics studies, using SDS-PAGE and fluorography, 230 μCi ^3H-33-mer or 770 μCi of ^3H-19-mer was used for i.v. administration and 620–1200 μCi ^3H-33-mer was used for oral administration to NOD mice aged 6–8 weeks.
Blood and organs were sampled after 1, 24 and 72 h. […] Kinetics of 3H-33-mer and 3H-19-mer in mouse blood following i.v. and p.o. administration. 3H-33-mer (A) or 3H-19-mer (B) was given i.v. to NOD mice (6-8 weeks). Tail blood was analyzed by SDS-PAGE and fluorography at the indicated time points (min). CT: control 33-mer/19-mer. In (A, right), 660 µg of unlabeled 33-mer was injected prior to the labeled peptide. (C) 3H-33-mer was administered p.o. to NOD mice (6-8 weeks). Blood was analyzed after 0.5, 1 and 20 h. All lanes were loaded with the same amount of radioactivity. CT is control 33-mer. (D) Fluorogram of in vitro incubation of blood plasma from a C57BL/6 mouse with 33-mer (28.6 ng/µl or 222.000 dpm/µl) for 0-4 h. CT is control 33-mer. (E) Plasma from mice, that had received 3H-labelled 33-mer one hour earlier by i.v. or p.o. administration, was depleted of albumin and IgG. […] Data were normalized between lanes to contain identical amounts of radioactivity outside the albumin/IgG region. […]
The conditions of data set [6]: mouse, in vivo. This is another data set of the same source.
Method: (§2) Standard tissue sections were dipped in a 1 : 1 dilution in water of melted Kodak NTB Emulsion with 10% Amplify Fluorographic Reagent (GE Healthcare), air-dried, stored in the dark at 4°C with desiccant for 1–3 weeks, developed in Kodak D19 developer, fixed in Ilford Rapid Fixer, HE stained, and examined in an Olympus Bx51 microscope (UPlanSApo 20x, 0.40) equipped with a Colorview 1 camera and Analysis getIT software (Olympus).
Data set [7] can be described thus: Autoradiography of mouse tissues. The following applies: 1 h after oral administration.
Method: as §2
The conditions of data set [8]: mouse, in vivo, po.
Method: (§3) For initial evaluation of accumulation and elimination in blood, NOD mice (6–8 weeks) received 230–900 μCi ^3H-33-mer or ^3H-19-mer. […] Organs were incubated with SOLVABLE (Perkin-Elmer) at 55°C until dissolved and then with 30% hydrogen peroxide to decolorize the solution. Ultima Gold (Perkin Elmer) was added, and samples were counted 1 h later in a Packard 1600TR scintillation counter.
(§4) Specific activities (dpm/mg tissue) were calculated by dividing the counts by the respective weight of the sample that was measured. The tissue distribution was examined using the tissue/blood ratios. To compare responses in blood across different doses (230–900 μCi), data were normalized to a dosage of 100 μCi.
(§5) Before oral gavage, mice were starved for 4 h and were not fed until 20 min after.
(§6) One-way ANOVA with Tukey posttest was carried out using GraphPad Prism version 5.00 for Windows (GraphPad Software, San Diego, California, USA) to analyze the distribution of the label at each time point. The stomach and intestine were excluded from the analysis due to their large variation.
The next data set deals with trypsin. Nature of the data set: Trypsin digestion of plasma/serum followed by SDS-PAGE and fluorography. It is filed as in vitro ADME. The conditions noted are these: serum; dithiothreitol/SDS at 53°C pH 7.5 45 min, then trypsin at 37°C.
Excerpt: as §1

Data set [9] can be described thus: Biodistribution of 3H label after oral administration (scintillation counting, tissue/blood ratio). The following applies: NOD mice, shortly after administration (Figure 1(a)), 0.01 < p < 0.05, N = 2–4 mice.
Method: as §3, §4, §5, §6
Data set [10] in a line: SDS-PAGE and fluorography of blood after i.v. or p.o. administration. The following applies: mice, data not shown.

Regarding LQLQPFPQPE, the “Sample in which the 33-mer fragment was found” value in data set [1] is on record as “Pancreas, C57BL/6”.

Turning to “LQLQPFPQPELPYPQPE [33-mer fragment assigned by MALDI-TOF MS mass match]”, in data set [1], the “Sample in which the 33-mer fragment was found” value is reported as “Plasma, NOD”. For the same compound, in data set [2], the “Sample (filtrate or gel slice range) in which the fragment was found” value (“Sample (filtrate or gel slice range)” for short) is on record as 4–6 kDa.

With ELPYPQPQPF, in [1], the “Sample in which the 33-mer fragment was found” value is on record as “Plasma, NOD”.

Consider LPYPQPELPYPQPQPF, for which, in data set [1], the “Sample in which the 33-mer fragment was found” value is on record as “Pancreas, NOD, C57BL/6”.

For the compound LQLQPFPQPELPYPQPELPYPQPELPYP, the “Sample in which the 33-mer fragment was found” value in data set [1] is listed as “Plasma, NOD, C57BL/6”.

In the case of “ELPYPQPELPYPQPELPY [33-mer fragment formed in mouse plasma in vitro, MALDI-TOF MS mass match]”, the “Sample (filtrate or gel slice range)” value in [2] is listed as “Filtrate”.

With “LQLQPFPQPELPYPQPELPYPQPELPYPQP [33-mer fragment formed in mouse plasma in vitro, MALDI-TOF MS mass match]”, the “Sample (filtrate or gel slice range)” value in data set [2] was 14–18 kDa.

Regarding “FPQPELPYPQPELPYPQPELPYPQPQPF [33-mer fragment formed in mouse plasma in vitro, MALDI-TOF MS mass match]”, the “Sample (filtrate or gel slice range)” value in data set [2] is recorded as 10–12 kDa.

In the case of LQLQPFPQPELPYPQPELPYPQPELPYPQPQP, the “Sample in which the 33-mer fragment was found” value in [1] is listed as “Plasma, C57BL/6”. Also, the “Sample (filtrate or gel slice range)” value in data set [2] is reported as 4–6 kDa. In addition, the “Stability as originally described” value in the data set on digestive proteases is “stable”.

Regarding QPFPQPELPYPQPELPYPQPELPYPQPQ, the “Sample in which the 33-mer fragment was found” value in [1] is reported as “Plasma, NOD, C57BL/6”.

Regarding FPQPELPY, the “Sample in which the 33-mer fragment was found” value in data set [1] is reported as “Plasma, C57BL/6”.

With “QPFPQPELPY [33-mer fragment assigned by MALDI-TOF MS mass match]”, the “Sample in which the 33-mer fragment was found” value in data set [1] was “Pancreas C57BL/6”. The “Sample (filtrate or gel slice range)” value in data set [2] was “Filtrate”.

Consider QPFPQPELPYPQPELPYPQPELPYPQPQP, for which the “Sample in which the 33-mer fragment was found” value in [1] was “Plasma, NOD, C57BL/6”.

Consider “H-LQLQPFPQPELPYPQPELPYPQPELPYPQPQPF-OHY [33-mer, proline-rich 33-mer (p56–88) alpha-gliadin peptide, 98% pure (Schafer-N)]”, for which the “Label removed by depletion of albumin and IgG” value in the data set on albumin and IgG (3H-33-mer added to blood in vitro, or cold peptide injected prior to labeled peptide) is given as 14-15%. For the same compound, in the data set with albumin and IgG (blood of mice that had received 33-mer, regardless of route, plasma 1 h after administration), the “Label removed by depletion of albumin and IgG” value was 35%. Further, in [3] (650 µg p.o., 60 min), the “Intact peptide in plasma after oral administration” value is “detected intact peptide; also recorded: close to the detection limit, and the peptide was not detected in all mice”. Further, in data set [3] (850 µg i.v., 15, 30 and 60 min), the “Intact peptide in plasma after intravenous administration” value was “detected intact peptide”. In addition, the “Formation of 12 kDa and HMW signals in vitro” value in data set [4] is “the 12 kDa signal, but not the HMW signal, also formed in vitro”. Moreover, the “Emergence of higher molecular weight species (HMW) in blood after injection” value in [5] (iv) is listed as “After 1 h, higher molecular weight species (HMW) emerged”. Further, the “33-mer signal in blood after oral administration” value in data set [5] (po) is given as “still present in the blood, although in low amounts”. In addition, in [6], the “Difference between i.v. and p.o. administration in autoradiography” value is “No difference was seen”. Further, in data set [1] (after oral 33-mer), the “Longest peptide detected in blood” value is listed as 32-mer. In data set [2], the “Sample (filtrate or gel slice range)” value is recorded as 4–6 kDa, 6–9 kDa, 14–17 kDa. For the same compound, the “Resistance to digestive proteases” value with digestive proteases was “resistant to digestive proteases”. Besides, in data set [7], the “Label in zymogen granules of the pancreas” value is on record as “high accumulation of label”. In data set [7] (lung, kidney, ileum), the “Label in all other tissues examined” value was “homogenous labeling was observed”. In addition, in [8], the “Absorption from the intestine” value was “readily absorbed from the intestine”; the “Level of label in the pancreas relative to blood” value is given as “high level of label”; the “Presence of label at early time points” value was “present 1/2 h after administration and still remained 3 hours after oral administration”. The Degradation by trypsin result in the data set with trypsin was “degrades albumin, but not 33-mer”.

As to “PFPQPELPYPQPELPYPQPELPYPQPQPF [33-mer fragment formed in mouse plasma in vitro, MALDI-TOF MS mass match]”, the “Sample (filtrate or gel slice range)” value in [2] was 10–12 kDa.

As for ELPYPQPELPYP, in [1], the “Sample in which the 33-mer fragment was found” value is “Plasma, NOD pancreas, NOD”.

As for QLQPFPQPEL, the “Sample in which the 33-mer fragment was found” value in data set [1] is “Pancreas, C57BL/6”.

Turning to QPFPQPELP, the “Sample in which the 33-mer fragment was found” value in data set [1] was “Plasma, NOD”.

Turning to QLQPFPQPELP, in data set [1], the “Sample in which the 33-mer fragment was found” value is “Plasma, NOD”.

In the case of H-LGQQQPFPPQQPYPQPQPF-OHY [19-mer], the “Resistance to digestive proteases” value in the data set on digestive proteases is on record as “resistant to digestive proteases”. In [8], the “Absorption from the intestine” value is on record as “readily absorbed from the intestine”; the “Level of label in the pancreas relative to blood” value is listed as “high level of label”; the “Presence of label at early time points” value was “present 1/2 h after administration and still remained 3 hours after oral administration”.

For the compound ELPYPQPELPYPQ, the “Sample in which the 33-mer fragment was found” value in data set [1] was “Plasma, NOD”.

Regarding “QLQPFPQPELPYPQPELPYPQPELPYPQPQP [33-mer fragment formed in mouse plasma in vitro, MALDI-TOF MS mass match]”, the “Sample (filtrate or gel slice range)” value in data set [2] was 14–17 kDa.

Turning to “YPQPQPF [33-mer fragment assigned by MALDI-TOF MS mass match]”, in data set [1], the “Sample in which the 33-mer fragment was found” value was “Plasma, NOD”. For the same compound, the “Sample (filtrate or gel slice range)” value in data set [2] is “Filtrate”.

For `N[C@@H](Cc1ccc(O)cc1)C(=O)O` [3H-tyrosine, tyrosine], the “Level of label in the pancreas relative to blood” value in data set [9] was “accumulated similarly to the 33- and 19-mer”. Also, the “HMW band after injection” value in data set [10] was “appearance of the HMW band”.

In the case of “ELPYPQPELPYPQPELPYPQPQPF [33-mer fragment formed in mouse plasma in vitro, MALDI-TOF MS mass match]”, the “Sample (filtrate or gel slice range)” value in data set [2] was 14–18 kDa.

LQPFPQPELPYPQPELPYPQPELPYPQPQ: the “Sample in which the 33-mer fragment was found” value in [1] is listed as “Plasma, NOD, C57BL/6”.

For ELPYPQPELP, the “Sample in which the 33-mer fragment was found” value in data set [1] is given as “Plasma, NOD pancreas, C57BL/6”.

On to “YPQPELPYPQPQPF [33-mer fragment assigned by MALDI-TOF MS mass match]”, for which the “Sample in which the 33-mer fragment was found” value in data set [1] is listed as “Plasma, NOD, C57BL/6”. Besides, the “Sample (filtrate or gel slice range)” value in [2] is “Filtrate”.

In the case of “LQLQPFPQPELPYPQPELPYPQPELPYPQPQ [33-mer fragment formed in mouse plasma in vitro, MALDI-TOF MS mass match]”, in [2], the “Sample (filtrate or gel slice range)” value is 14–17 kDa.

Take “ELPYPQPELPYPQPEL [33-mer fragment formed in mouse plasma in vitro, MALDI-TOF MS mass match]”: the “Sample (filtrate or gel slice range)” value in data set [2] is recorded as “Filtrate”.

On to “QPFPQPELPYPQPELPYPQPELPYPQPQPF [33-mer fragment formed in mouse plasma in vitro, MALDI-TOF MS mass match]”, for which, in data set [2], the “Sample (filtrate or gel slice range)” value is 14–18 kDa.

“ELPYPQPEL [33-mer fragment formed in mouse plasma in vitro, MALDI-TOF MS mass match]”: the “Sample (filtrate or gel slice range)” value in [2] is given as “Filtrate”.
